Legend:
Type in all cases: in vivo
[1] = test system: ryegrass, Italian (Italian ryegrass, Lolium multiflorum); assay: Test D pre-/postemergence: ryegrass, Italian
Outline: (§1)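 Visual control ratings (0–100) after 14–21 days, controlled environment. Preemergence on silt loam; postemergence on 2–18 cm plants.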

[2] = test system: Russian thistle (Salsola kali); assay: Test C pre-/postemergence: Russian thistle; conditions: Preemergence
Outline: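 Preemergence on seeds in loam/sand, postemergence on 2–18 cm (1–4-leaf) plants in peat-based medium; compounds in non-phytotoxic solvent with surfactant. After 13–15 days in greenhouse, visual rating versus controls, 0 (no effect) to 100 (complete control).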

[3] = test system: oilseed rape (Brassica napus); assay: Test D pre-/postemergence: oilseed rape
Outline: as §1

[4] = test system: wheat, spring (spring wheat, Triticum aestivum); assay: Test D pre-/postemergence: wheat, spring
Description: Seeds of plant species selected from bluegrass (annual bluegrass, Poa annua), blackgrass (Alopecurus myosuroides), canarygrass (Phalaris minor), chickweed (common chickweed, Stellaria media), galium (catchweed bedstraw, Galium aparine), bromegrass, downy (downy bromegrass, Bromus tectorum), field poppy (Papaver rhoeas), field violet (Viola arvensis), foxtail, green (green foxtail, Setaria viridis), deadnettle (henbit deadnettle, Lamium amplexicaule), ryegrass, Italian (Italian ryegrass, Lolium multiflorum), kochia (Kochia scoparia), lambsquarters (Chenopodium album), oilseed rape (Brassica napus), pigweed (Amaranthus retroflexus), Russian thistle (Salsola iberica), chamomile (scentless chamomile, Matricaria inodora), speedwell (bird's-eye speedwell, Veronica persica), barley, spring (spring barley, Hordeum vulgare), wheat, spring (spring wheat, Triticum aestivum), buckwheat, wild (wild buckwheat, Polygonum convolvulus), mustard, wild (wild mustard, Sinapis arvensis), oat, wild (wild oat, Avena fatua), radish, wild (wild radish, Raphanus raphanistrum), windgrass (Apera spica-venti), barley, winter (winter barley, Hordeum vulgare), and wheat, winter (winter wheat, Triticum aestivum) were planted into a silt loam soil and treated preemergence with test chemicals formulated in a non-phytotoxic solvent mixture which included a surfactant. At the same time, these same crop and weed species were planted in pots containing the planting medium comprising spaghnum peat moss, vermiculite, wetting agent and starter nutrients and treated with postemergence applications of the test chemicals formulated in the same manner. Plants ranged in height from 2 to 18 cm (1- to 4-leaf stage).
Treated plants and controls were maintained in a controlled growth environment for 14 to 21 days after which time all species were compared to controls and visually evaluated. Plant response ratings, summarized in Table D, are based on a scale of 0 to 100 where 0 is no effect and 100 is complete control. A dash (-) response means no test result.

[5] = Postemergence, 31 g ai/ha, scale 0 to 100 (0 no effect, 100 complete control)
[6] = Postemergence, 62 g ai/ha, scale 0 to 100 (0 no effect, 100 complete control)
[7] = Postemergence, 125 g ai/ha, scale 0 to 100, 0 no effect, 100 complete control
[8] = Postemergence, 250 g ai/ha, scale 0 to 100 (0 no effect, 100 complete control)
[9] = Postemergence, 16 g ai/ha, scale 0 to 100
[10] = Preemergence, 31 g ai/ha, scale 0 to 100, 0 no effect, 100 complete control
[11] = Preemergence, 62 g ai/ha, scale 0 to 100
[12] = Preemergence, 125 g ai/ha, scale 0 to 100
[13] = Preemergence, 250 g ai/ha, scale 0 to 100
[14] = 31 g ai/ha, scale of 0 to 100, 0 is no effect, 100 is complete control
[15] = 62 g ai/ha, scale of 0 to 100, 0 is no effect, 100 is complete control
[16] = 125 g ai/ha, scale 0 to 100, 0 no effect, 100 complete control
[17] = 250 g ai/ha, scale 0 to 100, 0 no effect, 100 complete control

| SMILES | Plant response rating: Ryegrass, Italian [1, 5] | Plant response rating: Ryegrass, Italian [1, 6] | Plant response rating: Ryegrass, Italian [1, 7] | Plant response rating: Ryegrass, Italian [1, 8] | Plant response rating, Ryegrass, Italian [1, 9] | Plant response rating, Ryegrass, Italian [1, 10] | Plant response rating, Ryegrass, Italian [1, 11] | Plant response rating, Ryegrass, Italian [1, 12] | Plant response rating, Russian Thistle [2, 14] | Plant response rating, Russian Thistle [2, 15] | Plant response rating, Russian Thistle [2, 16] | Plant response rating: Oilseed Rape [3, 5] | Plant response rating: Oilseed Rape [3, 6] | Plant response rating: Oilseed Rape [3, 7] | Plant response rating: Oilseed Rape [3, 8] | Plant response rating: Wheat, Spring [4, 5] | Plant response rating: Wheat, Spring [4, 6] | Plant response rating: Wheat, Spring [4, 7] | Plant response rating: Wheat, Spring [4, 8] | Plant response rating, Russian Thistle [2, 17] | also measured |
| --- | --- | --- | --- | --- | --- | --- | --- | --- | --- | --- | --- | --- | --- | --- | --- | --- | --- | --- | --- | --- | --- |
| COc1nn(-c2ccc(C(F)(F)F)cc2)nc1Cc1ccnc(C(F)(F)F)c1 [Compound 15, 4-[[5-methoxy-2-[4-(trifluoromethyl)phenyl]-2H-1,2,3-triazol-4-yl]methyl]-2-(trifluoromethyl)pyridine] | 5 | 5 | 10 | 20 | 0 | 0 | 5 | 25 | 50 | 95 | 100 | 100 | 70 | 100 | 100 | 25 | 30 | 40 | 50 | – | Plant response rating, Ryegrass, Italian [1, 13]: 70; Plant response rating, Russian Thistle ([2]; 16 g ai/ha, scale 0 (no effect) to 100 (complete control)): 5; Plant response rating, Oilseed Rape [3, 9]: 70; Plant response rating, Oilseed Rape [3, 10]: 0; Plant response rating, Oilseed Rape [3, 11]: 10; Plant response rating, Oilseed Rape [3, 12]: 20; Plant response rating, Oilseed Rape [3, 13]: 75; Plant response rating, Wheat, Spring [4, 9]: 20; Plant response rating, Wheat, Spring [4, 10]: 0; Plant response rating, Wheat, Spring [4, 11]: 0; Plant response rating, Wheat, Spring [4, 12]: 0; Plant response rating, Wheat, Spring [4, 13]: 5 |
| Cc1nn(-c2ccc(C(F)(F)F)cn2)nc1Cc1cccc(C(F)(F)F)c1 [Compound 106] | 5 | 5 | 10 | 20 | 5 | 0 | 0 | 0 | 0 | 5 | 30 | 10 | 10 | 80 | 95 | 5 | 5 | 10 | 20 | 100 | Plant response rating, Ryegrass, Italian [1, 13]: 0; Plant response rating, Oilseed Rape [3, 9]: 10; Plant response rating, Oilseed Rape [3, 10]: 10; Plant response rating, Oilseed Rape [3, 11]: 10; Plant response rating, Oilseed Rape [3, 12]: 10; Plant response rating, Oilseed Rape [3, 13]: 20; Plant response rating, Wheat, Spring [4, 9]: 0; Plant response rating, Wheat, Spring [4, 10]: 0; Plant response rating, Wheat, Spring [4, 11]: 0; Plant response rating, Wheat, Spring [4, 12]: 0; Plant response rating, Wheat, Spring [4, 13]: 0 |
| COc1nn(-c2ccc(C(F)(F)F)cc2)nc1Cc1ccnc(C(F)F)c1 [Compound 138] | 25 | 35 | 40 | 50 | 10 | – | – | – | 85 | 90 | 90 | 95 | 100 | 100 | 100 | 5 | 10 | 25 | 35 | 100 | Plant response rating, Oilseed Rape [3, 9]: 85; Plant response rating, Wheat, Spring [4, 9]: 5 |
| FC(F)(F)COc1nn(-c2ccc(C(F)(F)F)cc2)nc1Cc1ccnc(C(F)(F)F)c1 [Compound 14, 4-[[5-(2,2,2-trifluoroethoxy)-2-[4-(trifluoromethyl)phenyl]-2H-1,2,3-triazol-4-yl]methyl]-2-(trifluoromethyl)pyridine] | 5 | 20 | 25 | 35 | – | 0 | 25 | 25 | 10 | 90 | 95 | 30 | 70 | 90 | 100 | 15 | 20 | 35 | 40 | 95 | Plant response rating, Ryegrass, Italian [1, 13]: 50; Plant response rating, Oilseed Rape [3, 10]: 0; Plant response rating, Oilseed Rape [3, 11]: 0; Plant response rating, Oilseed Rape [3, 12]: 30; Plant response rating, Oilseed Rape [3, 13]: 40; Plant response rating, Wheat, Spring [4, 10]: 0; Plant response rating, Wheat, Spring [4, 11]: 0; Plant response rating, Wheat, Spring [4, 12]: 5; Plant response rating, Wheat, Spring [4, 13]: 15 |
| FC(F)Oc1nn(-c2ccc(C(F)(F)F)cc2)nc1Cc1ccnc(C(F)(F)F)c1 [Compound 26] | – | – | – | – | – | – | – | – | – | 80 | 95 | – | – | – | – | – | – | – | – | 95 | – |
